Like-named read-outs stand apart in the source and are kept apart here.
How the values were obtained:
Type in all cases: cell-based
BRD4 = molecular target: T1, BRD4 (Homo sapiens, UniProt O60885); assay: Down-regulation/degradation of BRD4 determined by Western blot in CWR22RV1 cells; settings: concentration 100 nM, 24 h
T1 construct: CWR22RV1 cells were subcultured in cell culture media; endogenous in cells; host or cells: CWR22RV1 cells
Protocol: (§1) The Down-Regulation on the Protein Expression of Androgen Receptors AR and Brd4 Determined by Western Blot CWR22RV1 cells (National Collection of Authenticated Cell Cultures. TCHu100) FBS (Gibco, Cat. No. 10099-141) 0.01M PBS (Biosharp. Cat. No. 162262) RIPM1640 (Hyclone, Cat. No. 308090.01) Penicillin-Streptomycin (Hyclone. Cat. No. SV30010) DMSO (Sigma. Cat. No. D5879) Centrifuge tube, 15 ml (Excell Bio. Cat. No. CS015-0001) Cell culture plate (Excell Bio. Cat. No. CS016-0128) 6-well cell culture cluster (Corning, Cat. No. 3516) RIPA lysate buffer (Beyotime, Cat. No. P0013B) Protein loading buffer (Beyotime, Cat. No. P0015L) CA protein assay kit (Beyotime, Cat. No. P0012) SDS-PAGE gel preparation kit (Chengdu Baihe Technology Co., Ltd. Cat. No. PG112) Anti-β-tubulin mouse mAb (Zen Bioscience, Cat. No. 200608) Androgen Receptor ([…]) XP Rabbit mAb (CST. Cat. No. 5153) Anti-cMyc(D3N8F) Rabbit mAb (CST. Cat. No. 13987) Anti-BRD4(E2A7X) rabbit mAb (CST, Cat. No. 13440) Peroxidase Affinipure(HRP) Goat Anti-Mouse IgG (Zen Bioscience, Cat. No. 511103) Peroxidase Affinipure(HRP) Goat Anti-Rabbit IgG (Zen Bioscience, Cat. No. 511203) TBST (Biosharp. Cat. No. B[…]) ECL chemiluminescence kit (Beyotime, Cat. No. […]1 cells were subcultured in cell culture media, and then the cells in good growth condition were seeded in a 6-well plate at 2 ml/well (1×10^6 cells/well), and cultured overnight in a 37° C., 5% CO2 cell incubator. 2) The drug was prepared as a 10 mM stock solution with dimethyl sulfoxide (DMSO). […] The plate was gently tapped to thoroughly mix. In addition, the experiment included negative control wells (containing equal amount of DMSO) and positive control wells. 3) After culturing 24 hi, the cells were lysed with RIPA cell lysate, and the protein was extracted. […] The first antibody (Androgen Receptor ([…]) XP Rabbit mAb. Anti-cMyc(D3N8F) Rabbit mAb, Anti-BRD4(E2A7X) rabbit mAb and Anti-β-Tubulin Mouse mAb) was added and incubated overnight at 4° C. The membrane was rinsed with TBST solution three times, 10 min for each time. The secondary antibody (horseradish peroxidase labeled goat anti mouse IgG) was added and incubated at room temperature for 2 h, and then the membrane was washed with TBST solution three times, 10 m for each time. Finally. ECL chemiluminescence solution was added, and then photos were taken with automatic chemiluminescence instrument to collect pictures for analysis.

Androgen receptor (AR) = assay: Down-regulation/degradation of AR determined by Western blot in CWR22RV1 cells; settings: concentration 100 nM, 24 h
Protocol: as §1

LNCaP/AR cells = assay: Inhibition of the proliferation of LNCap/AR cells (CCK-8); settings: read-out: LNCap/AR IC50
Method in brief: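 Proliferation was read by CCK-8 (OD 450 nm, 1 h) after six days of compound exposure. Cells were seeded at 1000 per well overnight, then dosed in duplicate over nine 3-fold steps with a top final concentration of 10 μM in 0.1% DMSO; IC50 was fitted from inhibition curves.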

22RV1 cells = assay: Inhibition of the proliferation of drug-resistant prostate cancer cell 22RV1 (CCK-8); settings: 22RV1 cells (enzalutamide-resistant), same method
Method in brief: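 22RV1 cells, 1000/well in RPMI1640 with 10% FBS, treated in duplicate with 9-point 3-fold dilutions from 10 μM (0.1% DMSO final). After 6 days at 37 °C, CCK-8 added for 1 h and OD450 read. IC50 from dose-response inhibition fit.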

[1] = 144 h, LNCaP/AR cells, 6 days culture, CCK-8
[2] = LNCaP/AR cells, 6 days culture, CCK-8

Row | Compound | IC50 (LNCaP/AR cells; [1]) [nM] | IC50 (22RV1 cells; Homo sapiens) [nM] | IC50 (LNCaP/AR cells; [2]) [nM] | IC50 (22RV1 cells) [nM] | BRD4 (% degradation) (BRD4) | AR (% degradation) (Androgen receptor (AR)) | IC50 (LNCaP/AR cells; LNCaP/AR, 144 h) [nM]
1 | Cc1ccc(-c2c(C)noc2C)cc1N(CC1CCN(c2cc3c(cc2F)C(=O)N(C2CCC(=O)NC2=O)C3)CC1)c1ccc(C2(C#N)CC2)cc1 (centres unmarked) [Compound 128, 1-(4-((5-(3,5-dimethylisoxazol-4-yl)-2-methylphenyl)((1-(2-(2,6-dioxopiperidin-3-yl)-6-fluoro-1-oxoisoindolin-5-yl)piperidin-4-yl)methyl)amino)phenyl)cyclopropane-1-nitrile] | 501 to 2000 | 101 to 500 | – | – | C (49%-20% of the target protein was degraded) | D (<20% of the target protein was degraded) | –
2 | Cc1ccc(-c2c(C)noc2C)cc1N(CCCOC1CN(c2cc3c(cc2F)C(=O)N(C2CCC(=O)NC2=O)C3=O)C1)c1ccc(C2(C#N)CC2)cc1 (centres unmarked) [Compound 120, 1-(4-((5-(3,5-dimethylisoxazol-4-yl)-2-methylphenyl)(3-((1-(2-(2,6-dioxopiperidin-3-yl)-6-fluoro-1,3-dioxoisoindol-5-yl)azetidin-3-yl)oxy)propyl)amino)phenyl)cyclopropane-1-carbonitrile] | 101 to 500 | < 100 | – | – | B (79%-50% of the target protein was degraded) | D (<20% of the target protein was degraded) | –
3 | Cc1ccc(-c2c(C)noc2C)cc1N(C[C@H]1CC[C@H](CNc2cc3c(cc2F)C(=O)N(C2CCC(=O)NC2=O)C3)CC1)c1ccc(C2(C#N)CC2)cc1 (some centres unmarked) [Compound 169] | 101 to 500 | < 100 | – | – | B (79%-50% of the target protein was degraded) | C (49%-20% of the target protein was degraded) | –
4 | Cc1ccc(-c2c(C)noc2C)cc1N(CC1CCN(C2CN(c3cc4c(cc3F)CN(C3CCC(=O)NC3=O)C4=O)C2)CC1)c1ccc(C2(C#N)CC2)cc1 (centres unmarked) [Compound 159] | < 100 | < 100 | – | – | B (79%-50% of the target protein was degraded) | C (49%-20% of the target protein was degraded) | –
5 | Cc1ccc(-c2c(C)noc2C)cc1N(CCCCCNc1ccc2c(c1)CN(C1CCC(=O)NC1=O)C2=O)c1ccc(C#N)c(Cl)c1 (centres unmarked) [Compound 63, 2-chloro-4-((5-(3,5-dimethylisoxazol-4-yl)-2-methylphenyl)(5-((2-(2,6-dioxopiperidin-3-yl)-1-oxoisoindolin-5-yl)amino)pentyl)amino)benzonitrile] | – | < 100 | – | – | C (49%-20% of the target protein was degraded) | C (49%-20% of the target protein was degraded) | < 100
6 | Cc1ccc(-c2c(C)noc2C)cc1N(C[C@H]1CC[C@H](CNc2ccc3c(c2)CN(C2CCC(=O)NC2=O)C3=O)CC1)c1ccc(C2(C#N)CC2)cc1 (some centres unmarked) [Compound 194] | 101 to 500 | < 100 | – | – | D (<20% of the target protein was degraded) | D (<20% of the target protein was degraded) | –
7 | Cc1ccc(-c2c(C)noc2C)cc1N(c1ccc(C2(C#N)CC2)cc1)C1CN([C@H]2C[C@@H](Nc3cc4c(cc3F)CN([C@H]3CCC(=O)NC3=O)C4=O)C2)C1 [Compound 68, 1-(4-((5-(3,5-dimethylisoxazol-4-yl)-2-methylphenyl)(1-((1s,3s)-3-((2-(2,6-dioxopiperidin-3-yl)-6-fluoro-3-oxoisoindolin-5-yl)amino)cyclobutyl)azetidin-3-yl)amino)phenyl)cyclopropane-1-nitrile] | – | – | < 100 | < 100 | A (>80% of the target protein was degraded) | D (<20% of the target protein was degraded) | –
8 | Cc1ccc(-c2c(C)noc2C)cc1N(CCCCNc1cc2c(cc1F)C(=O)N(C1CCC(=O)NC1=O)C2)c1ccc(C2(C#N)CC2)cc1 (centres unmarked) [Compound 43, 1-(4-((5-(3,5-Dimethylisoxazol-4-yl)-2-methylphenyl)(4-((2-(2,6-dioxopiperidin-3-yl)-6-fluoro-1-oxoisoindolin-5-yl)amino)butyl)amino)phenyl)cyclopropane-1-nitrile] | 501 to 2000 | < 100 | – | – | C (49%-20% of the target protein was degraded) | B (79%-50% of the target protein was degraded) | –
9 | Cc1ccc(-c2c(C)noc2C)cc1N(C[C@H]1CC[C@H](CNc2cc3c(cc2F)C(=O)N(C2CCC(=O)NC2=O)C3)CC1)c1ccc(C#N)c(Cl)c1 (some centres unmarked) [Compound 135] | – | – | < 100 | < 100 | A (>80% of the target protein was degraded) | C (49%-20% of the target protein was degraded) | –

More lines, main results first:

Row | IC50 (LNCaP/AR cells; [1]) [nM] | IC50 (22RV1 cells; Homo sapiens) [nM] | IC50 (LNCaP/AR cells; [2]) [nM] | IC50 (22RV1 cells) [nM] | Compound | BRD4 (% degradation) (BRD4) | AR (% degradation) (Androgen receptor (AR)) | IC50 (LNCaP/AR cells; LNCaP/AR, 144 h) [nM]
10 | 501 to 2000 | < 100 | – | – | Cc1ccc(-c2c(C)noc2C)cc1N(CC(C)OC1CN(c2ccc3c(c2)C(=O)N(C2CCC(=O)NC2=O)C3=O)C1)c1ccc(C2(C#N)CC2)cc1 (centres unmarked) [Compound 174, 1-(4-((5-(3,5-Dimethylisoxazol-4-yl)-2-methylphenyl)(2-((1-(2-(2,6-dioxopiperidin-3-yl)-1,3-dioxoisoindolin-5-yl)azacyclobutane-3-yl)oxy)propyl)amino)phenyl)cyclopropane-1-nitrile] | D (<20% of the target protein was degraded) | D (<20% of the target protein was degraded) | –
11 | 501 to 2000 | 101 to 500 | – | – | Cc1ccc(-c2c(C)noc2C)cc1N(CCCNc1ccc2c(c1)C(=O)N(C1CCC(=O)NC1=O)C2=O)c1ccc(C2(C#N)CC2)cc1 (centres unmarked) [Compound 172, 1-(4-((5-(3,5-Dimethylisoxazol-4-yl)-2-methylphenyl)(3-((2-(2,6-dioxopiperidin-3-yl)-1,3-dioxoisoindolin-5-yl)amino)propyl)amino)phenyl)cyclopropane-1-nitrile] | D (<20% of the target protein was degraded) | D (<20% of the target protein was degraded) | –
12 | > 2000 | > 2000 | – | – | Cc1ccc(-c2c(C)noc2C)cc1N(CC1(COC2CN(c3ccc4c(c3)C(=O)N(C3CCC(=O)NC3=O)C4=O)C2)CC1)c1ccc(C2(C#N)CC2)cc1 (centres unmarked) [Compound 137, 1-(4-((5-(3,5-Dimethylisoxazol-4-yl)-2-methylphenyl)((1-(((1-(2-(2,6-dioxopiperidin-3-yl)-1,3-dioxoisoindolin-5-yl)azetidin-3-yl)oxy)methyl)cyclopropyl)methyl)amino)phenyl)cyclopropane-1-nitrile] | B (79%-50% of the target protein was degraded) | C (49%-20% of the target protein was degraded) | –
13 | 501 to 2000 | < 100 | – | – | Cc1ccc(-c2c(C)noc2C)cc1N(CC(C)OC1CCN(c2ccc3c(c2)C(=O)N(C2CCC(=O)NC2=O)C3=O)CC1)c1ccc(C2(C#N)CC2)cc1 (centres unmarked) [Compound 106] | B (79%-50% of the target protein was degraded) | C (49%-20% of the target protein was degraded) | –
14 | 501 to 2000 | 101 to 500 | – | – | Cc1ccc(-c2c(C)noc2C)cc1N(CCCOC1(C)CN(c2ccc3c(c2)C(=O)N(C2CCC(=O)NC2=O)C3=O)C1)c1ccc(C2(C#N)CC2)cc1 (centres unmarked) [Compound 140] | C (49%-20% of the target protein was degraded) | D (<20% of the target protein was degraded) | –

— patent publication US20220257774A1, “AROMATIC AMINE AR AHD BET TARGETING PROTEIN DEGRADATION CHIMERA COMPOUND AND USE” (HINOVA PHARMACEUTICALS INC., priority 2019, published 2022)
